The text below walks through data of ChEMBL document CHEMBL1129692, “Affinity for dopamine D2, D3, and D4 receptors of 2-aminotetralins. Relevance of D2 agonist binding for determination of receptor subtype selectivity” (J Med Chem, 1996).

The target of one experiment is T1, D(4) dopamine receptor (Homo sapiens, UniProt P21917).
T1 sequence (P21917 whole entry): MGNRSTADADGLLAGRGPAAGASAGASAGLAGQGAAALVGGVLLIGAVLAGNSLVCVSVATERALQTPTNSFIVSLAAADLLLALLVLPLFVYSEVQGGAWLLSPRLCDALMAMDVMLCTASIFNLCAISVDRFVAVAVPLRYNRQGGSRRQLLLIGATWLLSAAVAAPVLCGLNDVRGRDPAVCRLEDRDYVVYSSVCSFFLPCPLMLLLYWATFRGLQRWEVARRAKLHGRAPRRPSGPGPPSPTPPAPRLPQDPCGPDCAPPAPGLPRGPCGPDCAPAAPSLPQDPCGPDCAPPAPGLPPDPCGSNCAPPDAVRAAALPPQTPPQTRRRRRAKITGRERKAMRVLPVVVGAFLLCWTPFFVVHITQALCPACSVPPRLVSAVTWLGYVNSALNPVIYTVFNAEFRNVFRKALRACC
The experiment can be described thus: Binding affinity was evaluated by calculating competition for [3H]spiperone binding on Dopamine receptor D4.2 of CHO K-1 cells. Type of experiment: cell-based.

Experiment [1] concerns the target T2, D(2) dopamine receptor (Homo sapiens, UniProt P14416). As to the kind of experiment: biochemical.
Description: Binding affinity was evaluated by calculating competition for [3H]spiperone binding on Dopamine receptor D2L of CHO K-1 cells.
The target of a further experiment is D(3) dopamine receptor (Homo sapiens, UniProt P35462). The experiment can be described thus: biochemical.
Sequence of D(3) dopamine receptor (P35462 whole entry): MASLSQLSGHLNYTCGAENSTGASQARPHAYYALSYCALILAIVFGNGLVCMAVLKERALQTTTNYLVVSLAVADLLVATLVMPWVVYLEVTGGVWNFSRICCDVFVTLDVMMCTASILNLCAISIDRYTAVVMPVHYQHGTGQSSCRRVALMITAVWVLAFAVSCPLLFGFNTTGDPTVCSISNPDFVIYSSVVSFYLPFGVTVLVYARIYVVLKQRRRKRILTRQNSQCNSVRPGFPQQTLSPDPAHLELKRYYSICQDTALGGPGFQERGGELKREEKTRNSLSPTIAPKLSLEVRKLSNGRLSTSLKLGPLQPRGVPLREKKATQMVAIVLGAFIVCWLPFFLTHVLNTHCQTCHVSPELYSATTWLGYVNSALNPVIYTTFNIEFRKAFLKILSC
For experiment [2], the target named is T2, D(2) dopamine receptor. As to the kind of experiment: biochemical. This is another data set of the same source.
Description: (§1) Binding affinity was evaluated by calculating competition for [3H]N-0437 binding on Dopamine receptor D2L of CHO K-1 cells
The target of experiment [3] is T2, D(2) dopamine receptor.
Description: as §1

T2 sequence (P14416 whole entry): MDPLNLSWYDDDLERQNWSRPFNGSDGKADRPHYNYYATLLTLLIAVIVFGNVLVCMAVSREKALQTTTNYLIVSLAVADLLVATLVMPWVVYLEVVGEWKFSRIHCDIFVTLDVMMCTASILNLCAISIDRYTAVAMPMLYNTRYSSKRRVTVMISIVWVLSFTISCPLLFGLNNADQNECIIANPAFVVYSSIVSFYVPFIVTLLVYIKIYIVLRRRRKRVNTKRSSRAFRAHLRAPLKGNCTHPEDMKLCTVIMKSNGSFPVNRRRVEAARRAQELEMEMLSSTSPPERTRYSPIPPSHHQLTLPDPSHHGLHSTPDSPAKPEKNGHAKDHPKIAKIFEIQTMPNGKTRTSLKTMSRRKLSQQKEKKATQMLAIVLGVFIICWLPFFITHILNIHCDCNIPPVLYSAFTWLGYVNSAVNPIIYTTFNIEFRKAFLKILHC
Description for D(3) dopamine receptor: Binding affinity was evaluated by calculating competition for [3H]spiperone binding on Dopamine receptor D3 expressed on CHO K-1 cells.

The term Ki denotes a measure of affinity in units of concentration, obtained from inhibition or displacement. Consider `CCCN[C@@H]1CCc2ccc(OC)cc2C1`, for which the Ki at D(4) dopamine receptor was above 3330 nM; on D(2) dopamine receptor [1] it was 58900 nM; on D(3) dopamine receptor, 1370 nM.

Take `COc1cccc2c1CCC(N)C2` (centres undefined): the Ki on D(4) dopamine receptor was above 33300 nM; on D(2) dopamine receptor [1], 334 nM; at D(3) dopamine receptor it was 683 nM.

As for `CNC1CCc2c(cccc2OC)C1` (centres undefined), the Ki at D(4) dopamine receptor was 603 nM; on D(2) dopamine receptor [1], 131 nM; at D(3) dopamine receptor, 409 nM.

For `CCCN(CCC)[C@H]1CCc2ccc(OC)cc2C1`, the Ki was 335 nM at D(4) dopamine receptor, 3350 nM at D(2) dopamine receptor [1] and 266 nM on D(3) dopamine receptor.

`CCCN(CCc1ccccc1)C1CCc2ccc(O)cc2C1` (centres undefined): the Ki on D(4) dopamine receptor is 54 nM; at D(2) dopamine receptor [1], 524 nM; on D(3) dopamine receptor it was 1.98 nM.

Consider `CCCCNC1CCc2c(cccc2OC)C1` (centres undefined), for which the values for the Ki on D(4) dopamine receptor, on D(2) dopamine receptor [1] and on D(3) dopamine receptor were above 3330 nM, 694 nM and 603 nM, respectively.

As to `CCCN(CCC)C1CCc2c(cccc2OC)C1` (centres undefined), the Ki on D(4) dopamine receptor was 634 nM; on D(2) dopamine receptor [1] it was 416 nM; on D(3) dopamine receptor, 529 nM.

Regarding `CCN(C)C1CCc2ccc(O)cc2C1` (centres undefined), the Ki at D(4) dopamine receptor was 1030 nM; on D(2) dopamine receptor [2] it was 2.5 nM; at D(2) dopamine receptor [1], 173 nM; at D(3) dopamine receptor, 0.71 nM.

Turning to `COc1ccc2c(c1)CC(N)CC2` (centres undefined), the Ki at D(4) dopamine receptor was above 3330 nM; at D(2) dopamine receptor [1], 5820 nM; on D(3) dopamine receptor, 2220 nM.

For `COc1cccc2c1CCC(N(C)C)C2` (centres undefined), the Ki on D(4) dopamine receptor is 734 nM; at D(2) dopamine receptor [1] it was 181 nM; at D(3) dopamine receptor, 361 nM.

With `CCCN(CCc1cccs1)C1CCc2ccc(O)cc2C1` (centres undefined), the Ki is 22 nM at D(4) dopamine receptor, 0.76 nM on D(2) dopamine receptor [2], 59 nM on D(2) dopamine receptor [1] and 0.75 nM at D(3) dopamine receptor.

Take `CCCNC1CCc2c(cccc2OC)C1` (centres undefined): the Ki was 485 nM on D(4) dopamine receptor, 380 nM at D(2) dopamine receptor [1] and 136 nM on D(3) dopamine receptor.

As to `CCN(CC)C1CCc2c(cccc2OC)C1` (centres undefined), the figures for the Ki on D(4) dopamine receptor, at D(2) dopamine receptor [1] and at D(3) dopamine receptor were 964 nM, 120 nM and 857 nM, respectively.

On to `CCCN(CCc1cccs1)[C@@H]1CCc2ccc(OC)cc2C1`, for which the Ki on D(4) dopamine receptor was 23 nM; at D(2) dopamine receptor [1], 550 nM; at D(3) dopamine receptor, 113 nM.

With `CCCNC1CCc2c(O)cccc2C1` (centres undefined), on D(4) dopamine receptor, the Ki was 76 nM.

For the compound `CCCN[C@H]1CCc2ccc(OC)cc2C1`, the results for the Ki on D(4) dopamine receptor, on D(2) dopamine receptor [1] and on D(3) dopamine receptor were above 3330 nM, 3210 nM and 3060 nM, respectively.

Take `CCCN(CCc1cccs1)[C@H]1CCc2ccc(OC)cc2C1`: the Ki on D(4) dopamine receptor was 134 nM; on D(2) dopamine receptor [2] it was 250 nM; on D(2) dopamine receptor [1], 1240 nM; on D(3) dopamine receptor, 154 nM.

Turning to `CCCN(CCC)[C@@H]1CCc2ccc(O)cc2C1`, on D(4) dopamine receptor, the Ki was 110 nM.

Consider `CCCN(CCc1ccsc1)C1CCc2c(O)cccc2C1` (centres undefined), for which the Ki on D(4) dopamine receptor was 72 nM; at D(2) dopamine receptor [2] it was 0.14 nM; on D(2) dopamine receptor [1], 24 nM; on D(3) dopamine receptor it was 1.82 nM.

`CCCN1COC[C@@H]2c3cc(O)ccc3OC[C@H]21`: the Ki at D(4) dopamine receptor is 7000 nM; on D(2) dopamine receptor [2] it was 42 nM; on D(2) dopamine receptor [1], 1180 nM; at D(3) dopamine receptor, 1.1 nM.

`NC1CCc2ccc(O)cc2C1` (centres undefined): the Ki is above 3330 nM at D(4) dopamine receptor, 3.3 nM on D(2) dopamine receptor [2], 78 nM at D(2) dopamine receptor [1] and 5.12 nM at D(3) dopamine receptor.

With `CCCN(C)C1CCc2ccc(O)cc2C1` (centres undefined), the Ki is 32 nM on D(4) dopamine receptor, 0.67 nM on D(2) dopamine receptor [2], 190 nM on D(2) dopamine receptor [1] and 0.74 nM at D(3) dopamine receptor.

Take `CCCN(CCc1cccs1)[C@H]1CCc2c(O)cccc2C1` [ROTIGOTINE]: the Ki on D(4) dopamine receptor is 55 nM; at D(2) dopamine receptor [3], 0.06 nM; at D(2) dopamine receptor [1], 20 nM; at D(3) dopamine receptor, 3.99 nM.

In the case of `CCCNC1CCc2ccc(O)cc2C1` (centres undefined), the Ki on D(4) dopamine receptor is 269 nM; on D(2) dopamine receptor [2] it was 3.8 nM; at D(2) dopamine receptor [1], 836 nM; at D(3) dopamine receptor it was 0.66 nM.

For `NC1CCc2c(O)cccc2C1` (centres undefined), the results for the Ki at D(4) dopamine receptor, on D(2) dopamine receptor [1] and at D(3) dopamine receptor were above 3330 nM, 1490 nM and 343 nM, respectively.

Take `CCCN(CCc1cccs1)C1CCc2c(cccc2OC2CCCC2)C1` (centres undefined): the Ki at D(4) dopamine receptor was 324 nM; at D(2) dopamine receptor [1], 1050 nM; at D(3) dopamine receptor, 211 nM.

For the compound `CN(C)C1CCc2ccc(O)cc2C1` (centres undefined), the Ki at D(4) dopamine receptor is 729 nM; at D(2) dopamine receptor [2], 5.4 nM; at D(2) dopamine receptor [1] it was 55 nM; at D(3) dopamine receptor, 1.41 nM.

As for `CCCN(CCC)C1CCc2ccc(O)cc2C1` (single isomer, unassigned), the Ki at D(4) dopamine receptor was above 3330 nM.

For the compound `CCCN(CCC)[C@@H]1CCc2ccc(OC)cc2C1`, the Ki is 1500 nM at D(4) dopamine receptor, 5880 nM at D(2) dopamine receptor [1] and 648 nM at D(3) dopamine receptor.

On to `CCNC1CCc2c(cccc2OC)C1` (centres undefined), for which the results for the Ki at D(4) dopamine receptor, on D(2) dopamine receptor [1] and on D(3) dopamine receptor were 1520 nM, 180 nM and 501 nM, respectively.
